In ChEMBL document CHEMBL3745643, “Recent Advances in the Discovery of Norovirus Therapeutics” (J Med Chem, 2015):
Peptide text beside a SMILES is read from it. * marks the point of attachment. Pyrrolidide = C1CCN(*)C1; Cbz = O=C(OCc1ccccc1)*

Tests used:
[1] = Inhibition of Norovirus RNA dependent RNA polymerase by spectrophotometry
Norovirus [2] = experiment: Antiviral activity against Norovirus infected in HG23 cells assessed as decrease in viral RNA level by qRT-PCR analysis; assay type: functional, cell-based
Norovirus [3] = experiment: Antiviral activity against Norovirus infected in HuH7 cells assessed as decrease in viral RNA level after 72 hrs by qRT-PCR analysis; assay type: functional, cell-based; details: Huh-7, 72 h
[4] = Inhibition of recombinant His-tagged Norovirus 3C-like protease for 45 mins followed by addition of 30 uM EDANS-EPDFHLQGPEDLAK-Dabcyl substrate by FRET assay
[5] = Inhibition of Norovirus 3C-like protease by FRET assay

For `Cc1ccc(C(=O)Nc2ccc(S(=O)(=O)O)c3cc(S(=O)(=O)O)cc(S(=O)(=O)O)c23)cc1NC(=O)c1cccc(NC(=O)Nc2cccc(C(=O)Nc3cc(C(=O)Nc4ccc(S(=O)(=O)O)c5cc(S(=O)(=O)O)cc(S(=O)(=O)O)c45)ccc3C)c2)c1` [SURAMIN HEXASODIUM], which EC50 [1] is on record?
The EC50 was 27 nM.

With `C[C@@]1(O)[C@H](O)[C@@H](CO)O[C@H]1n1ccc(N)nc1=O` as the compound, how does the EC50 (Norovirus [2]) read?
Its EC50 is 18000 nM.

For `Cc1nc(-c2ccccc2)sc1C(=O)Nc1sc2c(c1C#N)CCC2`, which EC50 (Norovirus [3]) is on record?
Its EC50 is 30100 nM.

For `Cc1ccc(C(=O)Nc2ccc(S(=O)(=O)O)c3cccc(S(=O)(=O)O)c23)cc1NC(=O)c1cccc(NC(=O)Nc2cccc(C(=O)Nc3cc(C(=O)Nc4ccc(S(=O)(=O)O)c5cccc(S(=O)(=O)O)c45)ccc3C)c2)c1`, which EC50 [1] is on record?
The EC50 was 28 nM.

For `CC(C)C[C@H](NC(=O)OCc1ccccc1)C(=O)N[C@@H](Cc1ccccc1)C(=O)N[C@H](C=O)CCC(=O)N1CCCC1` (Cbz-Leu-Phe-Glu(Pyrrolidide)-aldehyde), which EC50 [4] is on record?
Its EC50 is 75 nM.

Which EC50 [5] does the source give for `CCOC(=O)/C=C/[C@H](C[C@@H]1CCNC1=O)NC(=O)[C@@H](CC(=O)[C@@H](NC(=O)c1cc(C)on1)C(C)C)Cc1ccc(F)cc1` [RUPINTRIVIR] here?
Its EC50 is 23 nM.
